Measured values reported in PubChem BioAssay (NCI).
Several values for one entry are separate records, joined by “and”; a condition that tells them apart may be missing. Equal values may be shown once.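 Interpolation was linear, between the two tested concentrations surrounding the appropriate level; five concentrations were tested over 48 hours in 96-well plates. GI50 marks 50% less growth. TGI denotes the concentration required for complete inhibition of growth.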

Key:
Assay in all cases: DTP human tumour cell line panel, 48 h
[1] = test system: SF-295 CNS
[2] = test system: OVCAR-5 ovarian
[3] = test system: HOP-62 NSCLC
[4] = test system: 786-0 renal
[5] = test system: SN12C renal
[6] = test system: UACC-62 melanoma
[7] = test system: HCT-15 colon
[8] = test system: TK-10 renal
[9] = test system: ACHN renal
[10] = test system: CCRF-CEM leukemia

Row | Compound | GI50 [1] | TGI [1] | GI50 [2] | TGI [2] | GI50 [3] | TGI [3] | GI50 [4] | TGI [4] | GI50 [5] | TGI [5] | GI50 [6] | TGI [6] | GI50 [7] | TGI [7] | GI50 [8] | TGI [8] | GI50 [9] | TGI [9] | GI50 [10] | TGI [10]
1 | O=[N+]([O-])c1cc2c(ccc3ccccc32)o1 | 0.347 µM | 3.34 µM | 1.53 µM | 12.6 µM | 1.31 µM | 4.92 µM | 0.72 µM | 3.63 µM | 0.568 µM | 22.7 µM | 0.426 µM | 1.72 µM | 0.345 µM | 2.35 µM | 1.82 µM | 7.43 µM | 0.147 µM | 0.48 µM | 0.47 µM | > 35.6 µM
2 | O=C1C2C3C=CC(C2C(=O)N1CN1CCOCC1)C1C2C(=O)N(CN4CCOCC4)C(=O)C2C31 (stereo not drawn) | – | 98.9 µM | – | > 92.7 µM | – | > 100 µM | – | > 60.9 µM | – | > 64.4 µM | – | > 63 µM | – | > 60.1 µM | – | > 93.4 µM | – | > 91.5 µM | – | 57.9 µM
3 | CCOC(=O)c1ccc(N[C@@H]2c3cc4c(cc3C(c3cc(OC)c(O)c(OC)c3)[C@H]3C(=O)OCC32)OCO4)cc1 (stereo partly drawn) | 0.238 µM and 0.241 µM | 0.904 µM and 2.2 µM | 0.646 µM | 6.16 µM | 0.212 µM and 0.129 µM | 0.709 µM and 0.79 µM | 0.199 µM and 0.492 µM | 0.66 µM and 2.12 µM | 0.249 µM | 0.955 µM and 3.91 µM | 0.382 µM | 4.08 µM | – | 6.17 µM | 5 µM | 11.3 µM | 0.161 µM | 0.75 µM and 1.44 µM | 0.116 µM | 0.925 µM and 1.81 µM
4 | CC1Nc2ccccc2NC1C=C(C#N)C#N (stereo not drawn) | – | 28.9 µM | – | 33.4 µM | – | 43.7 µM | – | 29.6 µM | – | 30.1 µM | – | 32.6 µM | – | 37.3 µM | – | 34.2 µM | – | 32.7 µM | – | 7.97 µM
5 | O=NN(CC(=O)NNc1ccccc1)CC(=O)NNc1ccccc1 | 2.34 µM | 7.81 µM | > 100 µM | > 100 µM | > 100 µM | > 100 µM | 7.85 µM | > 100 µM | > 100 µM | > 100 µM | 0.479 µM | 7.9 µM | 12.3 µM | > 100 µM | > 100 µM | > 100 µM | – | > 100 µM | 5 µM | > 100 µM
